Data taken from patent publication US20130143236A1, “METHOD FOR DETERMINING SENSITIVITY OF TUMOR CELLS TO DASATINIB AND COMPUTER PROGRAM” (priority 2011, published 2013).

Test system: tyrosine kinase in the measurement sample (cell membrane fraction of breast cancer cell lines)
Experiment: Tyrosine kinase activity of cell membrane fraction in presence/absence of tyrosine kinase inhibitor (Poly-Glu4-Tyr substrate, ELISA chemiluminescence)
Assay type: biochemical
Details: 25 μM kinase inhibitor, 25 μM ATP, activity with inhibitor / without
Protocol: 500 μl of NP40(−) solubilized buffer (20 mM HEPES (pH 7.4)), 10 (w/v) % glycerol, 0.2% protease inhibitor cocktail (#P8340: Sigma-Aldrich (product composition: 104 mM AEBSF, 80 μM aprotinin, 4 mM bestatin, 1.4 mM E-64, 2 mM leupeptin, 1.5 mM Pepstatin A), 50 mM NaF and 200 μM Na3VO4) was added to the cell pellet, followed by stirring for 2 seconds three times using a vortex mixer. After being allowed to stand for 10 minutes, the soluble fraction was removed by centrifugal operation (at 20000×g, for 30 minutes, at 4° C.). The obtained pellet was resuspended in 500 μl of NP40(−) solubilized buffer, the soluble fraction was again removed by centrifugal operation (at 20000×g, for 20 minutes, at 4° C.), and the pellet was washed. The pellet was resuspended by adding 500 μl of NP40(+) solubilized buffer (a buffer prepared by adding NP-40 to the NP40(−) solubilized buffer at a final concentration of 1% to the pellet, pipetting 50 times, and vortexing for 2 seconds three times. After being allowed to stand for 10 minutes, a cell membrane fraction containing a membrane protein was obtained by centrifugal operation (at 20000×g, for 40 minutes, at 4° C.). The protein concentration of the obtained cell membrane fraction was measured by DC protein assay (#500-0116 JA: Bio-Rad). Then, the cell membrane fraction was used as a measurement sample for the following experiments. The measurement sample was frozen with liquid nitrogen and stored at −80° C. before use for the following kinase activity measurement.
NeutrAvidin Coated Plates (HBC) (96-well white plate; #15509: Pierce) were washed three times with 300 μl of TBS-T (20 mM Tris-HCl (pH 7.4)), 150 mM NaCl, 0.1% tween). Then, 100 μl of Poly-Glu4-Tyr biotin conjugate (#12440: Upstate) which had been diluted to 1 μg/ml with TBS (20 mM Tris-HCl (pH 7.4), 150 mM NaCl) was added to the wells. After shaking at 37° C. and 400 rpm for 90 minutes, the wells were washed with 300 μl of TBS-T three times and a measuring plate was obtained.
The measurement sample was diluted with a kinase buffer (20 mM HEPES (pH 7.4), 25 mM MgCl2, 1.25 mM MnCl2, 250 μM Na3VO4, 12.5 (w/v) % glycerol) so as to adjust the protein concentration to 6.25 μg/ml. The diluted measurement sample was transferred to wells of a 96 well V bottom plate. As the tyrosine kinase inhibitors, Src kinase inhibitor I known as an inhibitor of Src (CAS No. 179248-59-0: Calbiochem), PP1 (CAS No. 172889-26-8: Biomol), and Src kinase inhibitor II (Calbiochem) represented by Structural formula (I) below were used. A DMSO solution (inhibitor concentration: 5 mM) containing these inhibitors (Inhibitors 1 to 10 shown in Table 6) was added to the wells at a ratio of 1:160 based on the diluted measurement sample, followed by mixing thereof. As the control, DMSO was added to the diluted measurement sample at the same ratio as the solution of the inhibitor.
After addition of each of the tyrosine kinase inhibitors, a mixed solution of the measurement sample and the inhibitor was allowed to stand at room temperature for 10 minutes. 40 μl of the mixed solution was transferred to wells of the measuring plate and 10 μl of an ATP solution (20 mM HEPES (pH 7.4), […]) as the phosphate group donor was added to the wells. The composition of the solution in the wells is as follows: protein concentration: 5 μg/ml, 20 mM HEPES (pH 7.4), 20 mM MgCl2, 1 mM MnCl2, 200 μM Na3VO4, 10 (w/v) % glycerol, and 25 μM ATP, 25 μM kinase inhibitor.
After shaking the measuring plate at 37° C. and 400 rpm for 60 minutes, the solution was removed from the measuring plate, and the wells were washed with 300 μl of TBS-T three times. 100 μl of Starting Block T20 (TBS) (#37543: Pierce) as a blocking solution was added to the wells, followed by blocking at 37° C. and 400 rpm for 10 minutes. The blocking solution was removed from the measuring plate. […]

[1] = AU565 membrane fraction (dasatinib-insensitive cell line)
[2] = BT-20 membrane fraction (dasatinib-sensitive cell line)
[3] = BT-474 membrane fraction (dasatinib-insensitive cell line)
[4] = BT-549 membrane fraction (dasatinib-insensitive cell line)
[5] = HCC1419 membrane fraction (dasatinib-insensitive cell line)
[6] = HCC1428 membrane fraction (dasatinib-insensitive cell line)
[7] = HCC1806 membrane fraction (dasatinib-sensitive cell line)
[8] = HCC1954 membrane fraction (dasatinib-sensitive cell line)
[9] = HS578T membrane fraction (dasatinib-sensitive cell line)
[10] = MCF7 membrane fraction (dasatinib-insensitive cell line)
[11] = MDA-MB-157 membrane fraction (dasatinib-sensitive cell line)
[12] = MDA-MB-231 membrane fraction (dasatinib-sensitive cell line)
[13] = MDA-MB-435S membrane fraction (dasatinib-insensitive cell line)
[14] = MDA-MB-436 membrane fraction (dasatinib-insensitive cell line)
[15] = MDA-MB-453 membrane fraction (dasatinib-insensitive cell line)
[16] = MDA-MB-468 membrane fraction (dasatinib-insensitive cell line)
[17] = SK-BR-3 membrane fraction (dasatinib-insensitive cell line)
[18] = ZR-75-1 membrane fraction (dasatinib-insensitive cell line)
[19] = ZR-75-30 membrane fraction (dasatinib-insensitive cell line)

Q: For `Cc1ccc(-c2nn(C(C)(C)C)c3ncnc(N)c23)cc1` [PP1, 1-(1,1-dimethylethyl)-1-(4-methylphenyl)-1H-pyrazolo-[3,4-d]-pyrimidine-4-amine], which “RA (relative activity value)” value [1] is on record?
A: Its value is 0.302.

Q: What about the “RA (relative activity value)” value [2] of the same compound?
A: The value was 0.309.

Q: And the “RA (relative activity value)” value [3]?
A: The value was 0.496.

Q: And the “RA (relative activity value)” value [4]?
A: Its value is 0.193.

Q: What about the “RA (relative activity value)” value [5] of the same compound?
A: The value was 0.446.

Q: What about the “RA (relative activity value)” value [6] of the same compound?
A: Its value is 0.451.

Q: What about the “RA (relative activity value)” value [7] of the same compound?
A: The value was 0.160.

Q: What about the “RA (relative activity value)” value [8] of the same compound?
A: The value was 0.292.

Q: And the “RA (relative activity value)” value [9]?
A: The value was 0.194.

Q: And the “RA (relative activity value)” value [10]?
A: The value was 0.295.

Q: And the “RA (relative activity value)” value [11]?
A: Its value is 0.173.

Q: And the “RA (relative activity value)” value [12]?
A: Its value is 0.134.

Q: And the “RA (relative activity value)” value [13]?
A: The value was 0.313.

Q: What about the “RA (relative activity value)” value [14] of the same compound?
A: Its value is 0.403.

Q: And the “RA (relative activity value)” value [15]?
A: Its value is 0.448.

Q: And the “RA (relative activity value)” value [16]?
A: Its value is 0.322.

Q: What about the “RA (relative activity value)” value [17] of the same compound?
A: The value was 0.260.

Q: And the “RA (relative activity value)” value [18]?
A: The value was 0.314.

Q: And the “RA (relative activity value)” value [19]?
A: The value was 0.507.

Q: What does the source list for `COc1cc2ncnc(Nc3ccc(Oc4ccccc4)cc3)c2cc1OC` [Src kinase inhibitor I, 4-(4′-phenoxylanilino)-6,7-dimethoxyquinazoline]?
A: RA (relative activity value) [1]: 0.632; RA (relative activity value) [2]: 0.434; RA (relative activity value) [3]: 0.624; RA (relative activity value) [4]: 0.394; RA (relative activity value) [5]: 0.637; RA (relative activity value) [6]: 0.563; RA (relative activity value) [7]: 0.329; RA (relative activity value) [8]: 0.535; RA (relative activity value) [9]: 0.418; RA (relative activity value) [10]: 0.508; RA (relative activity value) [11]: 0.397; RA (relative activity value) [12]: 0.364; RA (relative activity value) [13]: 0.551; RA (relative activity value) [14]: 0.551; RA (relative activity value) [15]: 0.837; RA (relative activity value) [16]: 0.190; RA (relative activity value) [17]: 0.567; RA (relative activity value) [18]: 0.442; RA (relative activity value) [19]: 0.627

Q: With `COc1ccc2c(c1)cc(C)c1nnc(SCC(=O)Nc3cccc(C(C)=O)c3)n12` [Src kinase inhibitor II] as the compound, how does the “RA (relative activity value)” value [1] read?
A: The value was 0.731.

Q: What about the “RA (relative activity value)” value [2] of the same compound?
A: Its value is 0.668.

Q: What about the “RA (relative activity value)” value [3] of the same compound?
A: Its value is 0.620.

Q: What about the “RA (relative activity value)” value [4] of the same compound?
A: Its value is 0.528.

Q: What about the “RA (relative activity value)” value [5] of the same compound?
A: The value was 0.615.

Q: And the “RA (relative activity value)” value [6]?
A: Its value is 0.720.

Q: What about the “RA (relative activity value)” value [7] of the same compound?
A: The value was 0.476.

Q: And the “RA (relative activity value)” value [8]?
A: Its value is 0.644.

Q: What about the “RA (relative activity value)” value [9] of the same compound?
A: Its value is 0.709.

Q: What about the “RA (relative activity value)” value [10] of the same compound?
A: The value was 0.307.

Q: What about the “RA (relative activity value)” value [11] of the same compound?
A: Its value is 0.715.

Q: What about the “RA (relative activity value)” value [12] of the same compound?
A: Its value is 0.426.

Q: And the “RA (relative activity value)” value [13]?
A: Its value is 0.500.

Q: And the “RA (relative activity value)” value [14]?
A: The value was 0.514.

Q: What about the “RA (relative activity value)” value [15] of the same compound?
A: Its value is 0.549.

Q: What about the “RA (relative activity value)” value [16] of the same compound?
A: The value was 0.523.

Q: And the “RA (relative activity value)” value [17]?
A: Its value is 0.414.

Q: What about the “RA (relative activity value)” value [18] of the same compound?
A: Its value is 0.697.

Q: And the “RA (relative activity value)” value [19]?
A: Its value is 0.596.
